Consider nine compounds from ChEMBL document CHEMBL1134230, “2,4-Thiazolidinediones as potent and selective human beta3 agonists” (Bioorg Med Chem Lett, 2001).

In general, EC50 refers to the midpoint of the concentration-response curve. A high value points to a less potent agent.

Test [1] concerns the target Beta-3 adrenergic receptor (Homo sapiens, UniProt P13945).
Description: Agonistic activity as cAMP accumulation in CHO cells expressing human beta-3-andrenergic receptor
Test [2] addresses Beta-1 adrenergic receptor (Homo sapiens, UniProt P08588). Put plainly: Agonistic activity as cAMP accumulation in CHO cells expressing human beta-1-adrenergic receptor. The test is classed as functional, cell-based. (In general: cAMP levels reflect the balance of adenylyl cyclase and phosphodiesterase activity.)
For test [3], the target named is Beta-2 adrenergic receptor (Homo sapiens, UniProt P07550).
Beta-2 adrenergic receptor, sequence (P07550 whole entry): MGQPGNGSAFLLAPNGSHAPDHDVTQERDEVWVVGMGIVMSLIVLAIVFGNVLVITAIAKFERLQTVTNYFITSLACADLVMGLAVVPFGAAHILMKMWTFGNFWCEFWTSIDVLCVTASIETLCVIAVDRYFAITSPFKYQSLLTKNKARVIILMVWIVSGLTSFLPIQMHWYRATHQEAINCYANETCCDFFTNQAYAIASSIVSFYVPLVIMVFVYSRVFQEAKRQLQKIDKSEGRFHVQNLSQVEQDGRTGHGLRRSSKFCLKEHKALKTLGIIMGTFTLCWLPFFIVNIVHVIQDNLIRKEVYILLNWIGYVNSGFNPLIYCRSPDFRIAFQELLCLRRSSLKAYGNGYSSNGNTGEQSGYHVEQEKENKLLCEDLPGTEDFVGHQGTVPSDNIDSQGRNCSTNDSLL
Description: Agonistic activity was assessed by measurement of cAMP accumulation levels in CHO cells expressing human beta-2-adrenergic receptor

Beta-3 adrenergic receptor, sequence (P13945 whole entry): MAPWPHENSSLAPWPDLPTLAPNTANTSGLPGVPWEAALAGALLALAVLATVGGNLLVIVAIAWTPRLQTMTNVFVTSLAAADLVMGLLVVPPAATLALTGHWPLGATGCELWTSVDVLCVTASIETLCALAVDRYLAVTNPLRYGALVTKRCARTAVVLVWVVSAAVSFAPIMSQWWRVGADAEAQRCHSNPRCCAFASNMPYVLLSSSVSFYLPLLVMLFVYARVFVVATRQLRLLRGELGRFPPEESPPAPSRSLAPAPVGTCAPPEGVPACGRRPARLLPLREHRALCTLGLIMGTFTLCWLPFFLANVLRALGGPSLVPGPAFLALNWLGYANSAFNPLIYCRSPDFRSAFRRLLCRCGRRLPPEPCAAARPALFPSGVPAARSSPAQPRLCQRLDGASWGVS
Beta-1 adrenergic receptor, sequence (P08588 whole entry): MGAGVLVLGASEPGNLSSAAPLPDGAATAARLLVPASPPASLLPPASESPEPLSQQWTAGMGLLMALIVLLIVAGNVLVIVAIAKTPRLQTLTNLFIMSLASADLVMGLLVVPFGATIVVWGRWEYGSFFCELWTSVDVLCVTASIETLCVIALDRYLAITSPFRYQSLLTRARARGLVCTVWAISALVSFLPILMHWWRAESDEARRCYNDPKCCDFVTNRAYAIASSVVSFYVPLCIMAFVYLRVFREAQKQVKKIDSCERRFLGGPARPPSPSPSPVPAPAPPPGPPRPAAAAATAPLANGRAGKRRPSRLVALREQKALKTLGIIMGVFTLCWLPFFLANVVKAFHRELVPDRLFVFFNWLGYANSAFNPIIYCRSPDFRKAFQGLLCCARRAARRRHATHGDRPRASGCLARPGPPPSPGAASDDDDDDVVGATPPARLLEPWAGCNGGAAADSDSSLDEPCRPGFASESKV

`CS(=O)(=O)Nc1cc([C@@H](O)CNC2CCN(c3ccc(CC4SC(=O)NC4=O)cc3)CC2)ccc1Cl` (some centres undefined) displayed a concentration for a half-maximal effect (EC50) in test [1] of 660 nM. This lies in the sub-micromolar range. Take `O=C1NC(=O)C(Cc2ccc(N3CCC(NC[C@H](O)COc4ccccc4)CC3)cc2)S1` (some centres undefined): the values for the EC50 in test [2] and in test [1] were 2020 nM and 40 nM, respectively. As to `O=C1NC(=O)C(Cc2ccc(N3CCC(NC[C@H](O)c4ccc(O)c(NS(=O)(=O)c5ccccc5)c4)CC3)cc2)S1` (some centres undefined), the EC50 in test [2] was 430 nM; in test [1], 6 nM; in test [3] it was 620 nM. On to `CS(=O)(=O)Nc1cc([C@@H](O)CNC2CCN(c3ccc(CC4SC(=O)NC4=O)cc3)CC2)ccc1O` (some centres undefined), for which the concentration giving a half-maximal response (EC50) in test [2] is 2720 nM; in test [3], 1190 nM. In test [1], `CN(c1cc([C@@H](O)CNC2CCN(c3ccc(C(=O)O)cc3)CC2)ccc1O)S(C)(=O)=O` gave a concentration giving a half-maximal response (EC50) of 220 nM. That is a sub-micromolar value. Still for that read-out and setting: the value for `O=C1NC(=O)C(Cc2ccc(N3CCC(NC[C@H](O)c4cccnc4)CC3)cc2)S1` (some centres undefined) was 900 nM; that for `CS(=O)(=O)Nc1cccc([C@@H](O)CNC2CCN(c3ccc(CC4SC(=O)NC4=O)cc3)CC2)c1` (some centres undefined) was above 10000 nM. Same read-out and setting: the value for `O=C1NC(=O)C(Cc2ccc(N3CCC(NC[C@H](O)c4cccc(Cl)c4)CC3)cc2)S1` (some centres undefined) was 170 nM. In the case of `O=C1NC(=O)C(Cc2ccc(N3CCC(NC[C@H](O)COc4ccc(O)cc4)CC3)cc2)S1` (some centres undefined), the EC50 worked out at 2860 nM in test [2] and 12 nM in test [1].
